Results reported in patent publication US20040214897A1, “Uses for 2-amino-2-propane-1,3-diols” (priority 2001, published 2004).

Key:
[1] = system: yeast strains JK9-3dα, MH272-1da and MH272-1da/α; assay: Yeast growth on media containing the compound, compared with medium without compound; type: cell-based, Saccharomyces Cerevisie; settings: for antifungal activity on Saccharomyces Cerevisie: general statement
Method: The compound, e.g. FTY720, is dissolved in distilled water to be 10 mM, the resulting stock solution is kept at 4° C. and diluted to the appropriated concentrations with medium used for yeast culture. Standard laboratory yeast strain in this case derivatives of JK9-3d (a, alpha and diploid) are plated on to media containing the varying concentrations of the compound to be tested and their growth are compared to that in medium without the compound. Cultivation and maintenance of cells are carried out in YEPD medium (Difco) or synthetic medium (SD). The growth of both yeast strains JK9-3dα, MH272-1da and MH272-1da/α is inhibited by a compound of formula I, e.g. FTY720, at 30 μM in the YPED solid medium at 30° C. or in minimal medium at 19° C.

[2] = system: peripheral blood lymphocytes (PBL); settings: background statement; cited from earlier work
[3] = system: prototrophic derivatives of JK9-3dα; assay: Growth sensitivity of prototrophic derivatives of JK9-3dα to FTY720; type: cell-based, Saccharomyces Cerevisie
Method: (§1) The compound, e.g. FTY720, is dissolved in distilled water to be 10 mM, the resulting stock solution is kept at 4° C. and diluted to the appropriated concentrations with medium used for yeast culture. Standard laboratory yeast strain in this case derivatives of JK9-3d (a, alpha and diploid) are plated on to media containing the varying concentrations of the compound to be tested and their growth are compared to that in medium without the compound. Cultivation and maintenance of cells are carried out in YEPD medium (Difco) or synthetic medium (SD).
If so, yeast that are able to synthesize amino acids might have a growth advantage in the presence of FTY720 compared with isogenic auxotrophic yeast that require amino acid import from the medium to grow. Therefore, the influence of nutrient auxotrophies present in JK9-3dα (trp1 his4 leu2 ura3), which are used to identify target molecules of FTY720, on the sensitivity to this compound is tested. In contrast to the parental auxotrophic strain, fully prototrophic TRP1 HIS4 LEU2 URA3 derivative of JK9-3dα is resistant to 30 μM of FTY720. […] It therefore seems that the molecular targets and pathways other than that of 30 μM are involved in the effects of 100 μM of FTY720. Then, in order to identify which nutrient transport is inhibited by 30 μM of FTY720, prototrophic strain for each nutrient are constructed in JK9-3dα.

Bul1-disrupted yeast = assay: Sensitivity of gene-disrupted yeast strains to FTY720; type: cell-based, Saccharomyces Cerevisie
Method: as §1
Only one genomic DNA fragment in pRS416 confers sensitivity to FTY720. This DNA contains 4 intact genes (NRC1, Bul1, RCE1, DSK2). […] Intact Bul1 gene in low-copy-number plasmid confers sensitvity to FTY720 in the resistant recessive mutants, implying that the mutation happens in Bul1 gene in the recessive mutant yeast.

Rsp5 mutant yeast = assay: Sensitivity of Rsp5 mutant to FTY720; type: cell-based, Saccharomyces Cerevisie; settings: 30 μM
Method: as §1
In order to clarify the role of the ubiquitin pathway in FTY720 action, the sensitivity of Rsp5 (Bul1 binding ubiquitin ligase) mutant to FTY720 is tested. Rsp5 mutant, in which Rsp5 expression level is reduced to less than 10% of wild-type due to the Ty1 transposed insertion in the promoter, is used in this study, since the complete disruption of Rsp5 gene is lethal. This Rsp5 mutant is resistant to 30 μM of FTY720 like Bul1 disrupted-yeast.

JK9-3dα transformants = assay: FTY720 resistance of JK9-3dα transformants carrying plasmid-borne genes; type: cell-based, Saccharomyces Cerevisie
Text: If the growth sensitivity of these yeast strains is due to inhibition of specific functional protein targets in the cells, such inhibition could be relieved by overexpressing such a function through introduction of multiple genetic copies of such function. Accordingly the FTY720 sensitive strain JK9-3dα has been transformed with yeast genomic DNA libraries cloned in high copy plasmid (2 μm) URA3 selectable using Yeast Transformation System (Clontech). FTY720-resistant transformants are selected on synthetic medium lacking uracil in the presence of 30 μM of FTY720. The total number of URA3+transformants is >20,000. The first selection Is performed at 19° C. because even the parent yeast strain JK9-3dα is resistant to FTY720 in synthetic medium at 30° C. After the first selection for resistance, FTY720-resistant growth phenotype of transformants is reconfirmed by restreaking individual colonies on to medium with the compound. Plasmid which conferred resistance to FTY720 are recovered according to standard methods, amplified in E. coli and reintroduced into JK9-3da for the confirmation of FTY720 resistance. The DNA fragments which conferred FTY720 resistance are isolated to determine sequence of both terminii of insert DNA and the DNA sequence is compared with Saccharomyces Genome Database. Then, the responsible single genes for the FTY720 resistance are further identified from the DNA fragments due to their common presence in different fragments and by using specific restriction enzymes to subclone them into yeast plasmid vector as shorter fragments (Genes Vap1, UBP5, UBP11 and Caj1 are identified by this method).
From each fragment or resistance plasmid, single responsible genes, which overcome the anti-fungal effects of this compound at the increased copy number, are identified by subcloning using restriction enzymes. One is amino acid transporter VAP1, the others are a putative deubiquitinating enzyme UBP11 and UBP5. The last one is CAJ1 (heat shock protein).
The glutamine transporter GNP1 gene (38) is PCR amplified out of this fragment derived from the FTY720 resistant mutant or parent wild-type genomic DNA, then cloned into the same plasmid vector pRS416.
JK9-3dα wild-type cells are transformed with the yeast genomic DNA library constructed from FTY720 resistant dominant mutant in the low-copy-number vector pRS416. FTY720-resistant transformants are selected in SD medium in the presence of 30 μM of FTY720 as mentioned above. Plasmid inserts are sequenced and gene is identified as GNP1.

yeast cells = settings: cited from earlier work
several yeast strains = settings: background statement; cited from earlier work

NC(CO)(CO)CCc1ccc(C(=O)CCCCc2ccccc2)cc1 [Compound Y, 2-amino-2-{2-[4-(1-oxo-5-phenylpentyl)phenyl]ethyl}propane-1,3-diol]
antifungal activity on Saccharomyces Cerevisie [1]: exhibits an antifungal activity
peripheral blood lymphocytes (PBL) in vivo [2]: rapid and marked reduction

CCCCCCCCc1ccc(CCC(N)(CO)CO)cc1 [FTY720, 2-Amino-2-[2-(4-octylphenyl)ethyl]propane-1,3-diol]
growth of yeast strains JK9-3dα, MH272-1da and MH272-1da/α ([1]; 30 μM, YPED solid medium at 30° C. or minimal medium at 19° C.): inhibited
antifungal activity on Saccharomyces Cerevisie [1]: exhibits an antifungal activity
sensitivity of parent yeast strain JK9-3dα ([1]; synthetic medium at 30° C.): resistant
sensitivity of fully prototrophic TRP1 HIS4 LEU2 URA3 derivative of JK9-3dα ([3]; 30 μM): resistant
sensitivity of single TRP1, HIS4, LEU2 or URA3 prototrophic strains ([3]; 30 μM, JK9-3dα background): Neither of each TRP1, HIS4, LEU2 or URA3 prototrophic strain is resistant
sensitivity of strain with both TRP1 and LEU2 ([3]; 30 μM, JK9-3dα background): sufficient to confer resistance
sensitivity of prototrophic yeast ([3]; 100 μM): still sensitive
sensitivity of Bul1-disrupted yeast after introduction of Bul1 gene in low-copy-number plasmid pRS416 (Bul1-disrupted yeast): reverses the phenotype from resistance to sensitivity
sensitivity of Bul1-disrupted yeast (Bul1-disrupted yeast; 30 μM): confers resistance
sensitivity of Rsp5 mutant (Rsp5 expression less than 10% of wild-type) (Rsp5 mutant yeast): resistant
anti-fungal effect with wild type TAT2 gene in low-copy number-plasmid (JK9-3dα transformants): overcomes the anti-fungal effects
growth-inhibitory effect with VAP1, UBP11, UBP5 or CAJ1 in high-copy-number plasmid (JK9-3dα transformants; 30 μM, JK9-3dα): overcome the growth-inhibitory effects
anti-fungal effect with mutant-derived GNP1 in low-copy-number plasmid (JK9-3dα transformants; 30 μM, JK9-3dα transformants, pRS416): confers resistance
growth inhibition with multiple copies of VAP1 (JK9-3dα transformants; 100 μM): fail to overcome the growth inhibition
anti-fungal effect with wild-type GNP1 gene in low-copy-number plasmid (JK9-3dα transformants; JK9-3dα transformants, pRS416): not inhibited
anti-fungal effect with VAP1 (and TAP2) in low-copy-number plasmid (JK9-3dα transformants; genes from mutant-derived and wild-type genomic DNA libraries): confer FTY720 resistance
peripheral blood lymphocytes (PBL) in vivo [2]: rapid and marked reduction

CCCCCCCCCCCCCC[C@@H](O)[C@@H](O)[C@@H](N)CO [PHS, phytoshingosine]
tryptophan uptake (yeast cells): diminishes tryptophan uptake

cyclosporin A [CsA]
growth of several yeast strains (several yeast strains): potently inhibit
